Data set [1] concerns H3122 cells. Put plainly: Cytotoxicity in non-small cell lung cancer cell line H3122 (SRB). It counts as cell-based, human. The note with it: H3122 cells, three days, SRB.
Data set [2] relates to H2228 cells. Put plainly: cells. The note with it: Homo sapiens, NCI-H2228, 72 h, read-out: Cytotoxicity H2228 (GI50 μM), H2228 cells, three days, SRB.
Data set [3] relates to H2228 cells. The note with it: human, 3 days.
For data set [4], the target named is ALK WT (Homo sapiens (Human), UniProt Q9UM73). The note with it: read-out: ALK WT (IC50 μM); ALK enzyme, HTRF.
ALK WT, sequence (Q9UM73 19-1620): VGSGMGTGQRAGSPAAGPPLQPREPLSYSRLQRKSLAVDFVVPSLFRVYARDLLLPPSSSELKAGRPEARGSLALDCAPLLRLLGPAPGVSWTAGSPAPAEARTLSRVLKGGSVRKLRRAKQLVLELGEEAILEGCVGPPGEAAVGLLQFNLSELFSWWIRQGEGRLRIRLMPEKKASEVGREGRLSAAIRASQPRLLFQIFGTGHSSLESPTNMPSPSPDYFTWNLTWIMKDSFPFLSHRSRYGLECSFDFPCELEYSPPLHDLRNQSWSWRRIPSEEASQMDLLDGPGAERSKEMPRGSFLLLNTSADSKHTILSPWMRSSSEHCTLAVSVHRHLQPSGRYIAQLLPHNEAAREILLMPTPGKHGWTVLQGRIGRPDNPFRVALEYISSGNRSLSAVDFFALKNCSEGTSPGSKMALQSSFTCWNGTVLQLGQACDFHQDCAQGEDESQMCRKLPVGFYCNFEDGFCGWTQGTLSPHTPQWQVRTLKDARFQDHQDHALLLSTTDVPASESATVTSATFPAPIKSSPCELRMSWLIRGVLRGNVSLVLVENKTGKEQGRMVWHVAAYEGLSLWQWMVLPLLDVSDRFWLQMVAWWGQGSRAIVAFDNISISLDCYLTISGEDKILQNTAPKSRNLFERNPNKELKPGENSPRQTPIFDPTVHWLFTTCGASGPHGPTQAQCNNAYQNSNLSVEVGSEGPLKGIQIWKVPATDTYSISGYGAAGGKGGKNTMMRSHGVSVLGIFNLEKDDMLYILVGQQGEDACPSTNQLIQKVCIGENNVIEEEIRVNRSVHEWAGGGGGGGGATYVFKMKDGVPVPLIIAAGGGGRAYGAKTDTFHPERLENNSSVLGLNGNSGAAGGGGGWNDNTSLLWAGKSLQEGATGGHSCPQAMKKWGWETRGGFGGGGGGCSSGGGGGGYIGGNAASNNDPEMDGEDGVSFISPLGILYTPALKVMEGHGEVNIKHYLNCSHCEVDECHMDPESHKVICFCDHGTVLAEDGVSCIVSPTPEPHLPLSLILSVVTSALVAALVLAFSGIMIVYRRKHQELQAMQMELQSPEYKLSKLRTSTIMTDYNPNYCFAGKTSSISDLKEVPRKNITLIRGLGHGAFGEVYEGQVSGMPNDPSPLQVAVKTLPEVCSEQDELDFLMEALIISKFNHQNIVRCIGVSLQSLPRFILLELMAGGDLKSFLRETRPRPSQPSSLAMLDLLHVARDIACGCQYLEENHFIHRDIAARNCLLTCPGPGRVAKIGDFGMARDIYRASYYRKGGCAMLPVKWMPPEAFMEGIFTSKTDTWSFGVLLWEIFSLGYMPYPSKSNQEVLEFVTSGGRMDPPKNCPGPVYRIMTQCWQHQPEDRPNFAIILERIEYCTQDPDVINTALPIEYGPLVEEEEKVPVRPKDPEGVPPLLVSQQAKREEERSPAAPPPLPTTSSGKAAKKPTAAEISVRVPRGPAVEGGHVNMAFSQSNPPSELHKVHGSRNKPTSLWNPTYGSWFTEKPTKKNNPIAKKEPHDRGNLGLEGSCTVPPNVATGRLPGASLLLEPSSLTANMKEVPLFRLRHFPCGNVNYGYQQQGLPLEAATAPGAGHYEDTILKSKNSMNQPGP
Protocol: To measure the activity to inhibit ALK, each of the compounds prepared in examples listed in table 2 (2 μl) was loaded in a 384 well plate. Then, each of the compounds was mixed with anaplastic lymphoma kinase (ALK) enzyme (1 μl) and biotin conjugated peptide substrate (2 μl), followed by culture for 15 minutes. ATP solution (5 μl) was added thereto, followed by kinase reaction at room temperature for 30 minutes. […] Upon completion of the reaction, one hour culture was performed, followed by analysis using homogeneous time-resolved fluorescence (HTRF, Cisbio).
In data set [5] the test system is H3122 induced lung cancer. Put plainly: In vivo xenograft evaluation for H3122 induced lung cancer. Also on record: species or system nude mice (BALB/c nu/nu). To be noted: H3122 xenograft in nude mice, orally administered q.d.×14, FIG. 1. The source says: The nude mice (BALB/c nu/nu, female) used in this experiment were purchased from Charles River Japan, Inc. and raised and tested under SPF (Specific Pathogen Free) control. The human non-small cell lung cancer cell line H3122 maintained by Korea Research Institute of Chemical Technology was used in this experiment.
The female nude mice adapted to the laboratory were implanted with cancer. Particularly, H3122 cells grown to the appropriate size for passage were cut into 3×3×3 mm^3, which was transplanted (s.c.) under the right side of the nude mouse. When the size of the implanted cancer reached about 200 mm^3, administration of the compound of example 58 was started; this was the first day (day 1). For the control, 20% PEG 400+3% Tween 80 in DDW was orally administered. For the experimental group (7 mice/group), the compound was dissolved in the same solvent of the control, which was orally administered 14 times in total (q.d.×14). The size of the cancer was measured every 2-3 days after the administration using a caliper and the diameters (long diameter (a), short diameter (b)) of the cancer were measured. The size of the cancer (volume, V) was calculated according to mathematical formula 1. Volume (mm^3)=a×b^2/2 Mathematical Formula 1
(In the mathematical formula 1,
a represents the horizontal length of the cancer; and
b represents the vertical short length of the cancer).

Data set [6] concerns Ba/F3 EML4-ALK WT cells. Put plainly: cells. Format: cell-based, rodent. The note with it: Ba/F3 EML4-ALK, read-out: Ba/F3 EML-ALK WT (IC50 μM).

Read-outs that look alike come from different tables or passages of the source.

For `COC(=O)CCNCCc1ccc(OC)c(Nc2ncc(Cl)c(Nc3ccccc3S(=O)(=O)C(C)C)n2)c1` [Example 24, methyl 3-(3-(5-chloro-4-(2-(isopropylsulfonyl)phenylamino)pyrimidine-2-ylamino)-4-methoxyphenethylamino)propanoate], the GI50 is 0.09 µM in data set [1]; at most 0.1 µM in data set [1] (Homo sapiens, NCI-H3122, 72 h); at most 1 µM in data set [2]; 660 nM in data set [3].
For the molecule `COc1ccc(CCN(CCO)CCO)cc1Nc1ncc(Cl)c(Nc2ccccc2S(=O)(=O)C(C)C)n1` [Example 39, 2,2′-(3-(5-chloro-4-(2-(isopropylsulfonyl)phenylamino)pyrimidine-2-ylamino)-4-methoxyphenethylazeindiyl)diethanol], the concentration for 50% growth inhibition (GI50) was 0.93 µM in data set [1] (Homo sapiens, NCI-H3122, 72 h); at most 1 µM in data set [2]; 870 nM in data set [3].
`COc1cc(CCN(C)C)c(C)cc1Nc1ncc(Cl)c(Nc2ccccc2S(=O)(=O)C(C)C)n1` [Example 58, 5-chloro-N2-(4-(2-(dimethylamino)ethyl)-2-methoxy-5-methylphenyl)-N4-(2-(isopropylsulfonyl)phenyl)pyrimidine-2,4-diamine] displayed a GI50 in data set [1] (Homo sapiens, NCI-H3122, 72 h) of 0.013 µM. Further, the IC50 in data set [4] came out at 0.0014 µM; in data set [6], 0.01 µM. The “size of the cancer (volume)” value in data set [5] is reported as “the effect of inhibiting cancer size was excellent, similar to LDK378”.
`Cc1cc(Nc2ncc(Cl)c(Nc3ccccc3S(=O)(=O)C(C)C)n2)c(OC(C)C)cc1C1CCNCC1` [LDK378, Ceritinib, reference compound]: in data set [5], the “size of the cancer (volume)” value is “the effect of inhibiting cancer size was excellent, similar to LDK378”.

Values taken from patent US10100019B2.
